From US7691818B2, “Peptidomimetic inhibitors of retroviral proteases and their use as antivirals” (Universita' Degli Studi Di Treiste, priority 2004, dated 2010) come the findings set out here.

The assay deals with HIV-1 recombinant protease (Human immunodeficiency virus type 1 group M subtype B, UniProt P04585). Briefly: biochemical.
Procedure: Inhibitory activity was measured in accordance with the method described by A. Tossi et al. (Eur. J. Biochem., 2000, 267, 1715) using an HIV-1 recombinant protease supplied by Bioczech (Prague, CZ) and the fluorogenic substrate Abz-Thr-Ile-Nle-Phe(p-NO2)-Gln-Arg-NH2 (abbreviated hereinafter as Abz-NF*-6) supplied by Bachem (Bubendorf, CH). Specifically, 189 μL of a 30 μM solution of Abz-NF*-6 in a 100 mM MES-NaOH buffer (pH 5.5) containing NaCl (400 mM), EDTA (1 mM), DTT (1 mM) and BSA (1 mg/mL) are incubated at 25° C. in a cuvette placed directly in the spectrofluorimeter, irradiated at 325 mn and checking that there is no increase of emission at 420 nm due to the spontaneous hydrolysis of the substrate. After 1.5 minutes 11 μL of a standard solution of HIV-PR (0.4 mg/mL) in the same buffer are added and the variation in fluorescence, due to catalysed hydrolysis of the Abz-NF*-6 substrate, is recorded for 1 minute. 2 μL of the inhibitor solution in DMSO or MES buffer are then added and the variation in fluorescence over time due to hydrolysis of the Abz-NF*-6 substrate in the presence of the specific inhibitor is recorded.
By IC50 is commonly meant the point on the concentration scale where inhibition reaches its midpoint. As to `CCC(C)C(NC(=O)C(NC(C)=O)C(C)C)C(=O)N1CCC[C@H]1[C@H](O)[C@@H](O)[C@H](Cc1ccccc1)NC(=O)C(CC(N)=O)NC(=O)C(CC(C)C)NC(=O)C(CO)NC(C)=O` (stereo partly drawn) [(21), NH-Ac-Ser-Leu-Asn-Phe-[φ]-Pro-Ile-Val-NH-Ac], the IC50 came out at 0.61 nM.

Consider `CC(=O)N[C@@H](Cc1c[nH]c2ccccc12)C(=O)N[C@H](C(=O)N[C@@H](Cc1ccccc1)[C@H](O)[C@@H](O)[C@@H]1CCCN1C(=O)[C@@H](NC(=O)[C@H](Cc1c[nH]c2ccccc12)NC(C)=O)C(C)C)C(C)C` [(22), NH-Ac-Trp-Val-Phe-[φ]-Pro-Val-Trp-NH-Ac], for which the IC50 was 0.06 nM.

On to `Cc1cccc(C)c1OCC(=O)N[C@@H](Cc1ccccc1)[C@H](O)[C@@H](O)[C@@H]1CCCN1C(=O)COc1c(C)cccc1C` [(23), DmPoa-Phe-[φ]-Pro-DmPoa], for which the IC50 is 9.6 nM.

As for `CC(=O)NC(Cc1c[nH]c2ccccc12)C(=O)NC(C(=O)N1CCC[C@H]1[C@H](O)[C@@H](O)[C@H](Cc1ccccc1)NC(=O)COc1c(C)cccc1C)C(C)C` (stereo partly drawn) [(24), DmPoa-Phe-[φ]-Pro-Val-Trp-NH-Ac], the IC50 was found to be 75.3 nM.

As for `Cc1cccc(C)c1OCC(=O)N[C@@H](Cc1ccccc1)[C@H](O)[C@@H](O)[C@@H]1CCCN1C(=O)COc1ccccc1` [(25), DmPoa-Phe-[φ]-Pro-Poa], the IC50 came out at 84.7 nM.
